Source: patent US11197857B2, “Combination therapy” (GlaxoSmithKline Intellectual Property Development Limited, priority 2016, dated 2021)

How the values were obtained:
Breast cancer cell lines = assay: 6-day growth-death assay (Cell Titer Glo); type: cell-based, human; settings: 29 cell lines
MOLM-13 = assay: 6-day growth-death assay (Cell Titer Glo); type: cell-based, human; settings: MOLM-13, subtype M5
Experimental: (§1) The growth of all cell lines was evaluated over time across a wide range of seeding densities to identify conditions that permitted proliferation throughout the entire 6-day assay. Cells were plated at the optimal seeding density and after overnight incubation, a 20-point 2-fold titration of compound was added and plates were incubated for 6 days. A replicate plate of cells was harvested at the time of compound addition to quantify the starting number of cells (T0). Values obtained after the 6 day treatment were expressed as a function of the T0 value and plotted against compound concentration. The T0 value was normalized to 100% and represents the number of cells at the time of compound addition. The data were fit with a 4 parameter equation to generate a concentration response curve and the growth IC50 (gIC50) was determined. The gIC50 is the midpoint of the ‘growth window’, the difference between the number of cells at the time of compound addition (To) and the number of cells after 6 days (DMSO control). The growth-death assay can be used to quantify the net population change, clearly defining cell death (cytotoxicity) as fewer cells compared to the number at the time of compound addition (To).

SHI-1 = assay: 6-day growth-death assay (Cell Titer Glo); type: cell-based, human; settings: SHI-1, subtype M5
Experimental: as §1

MOLM-16 = assay: 6-day growth-death assay (Cell Titer Glo); type: cell-based, human; settings: MOLM-16, subtype M0
Experimental: as §1

CAKI-2 = assay: 6-day growth-death assay (Cell Titer Glo); type: cell-based, human; settings: CAKI-2, ccRCC
Experimental: as §1

SK-NEP-1 = assay: 6-day growth-death assay (Cell Titer Glo); type: cell-based, human; settings: SK-NEP-1, Wilm's
Experimental: as §1

ACHN = assay: 6-day growth-death assay (Cell Titer Glo); type: cell-based, human
Experimental: as §1

SW156 = assay: 6-day growth-death assay (Cell Titer Glo); type: cell-based, human; settings: SW156, ccRCC
Experimental: as §1

786-O = assay: 6-day growth-death assay (Cell Titer Glo); type: cell-based, human; settings: ccRCC
Experimental: as §1

MV-4-11 = assay: 6-day growth-death assay (Cell Titer Glo); type: cell-based, human; settings: MV-4-11, subtype M5
Experimental: as §1

CAKI-1 = assay: 6-day growth-death assay (Cell Titer Glo); type: cell-based, human; settings: CAKI-1, ccRCC
Experimental: as §1

G-402 = assay: 6-day growth-death assay (Cell Titer Glo); type: cell-based, human; settings: G-402, Leiomyoblastoma
Experimental: as §1

NSCLC cell lines = assay: 6-day growth-death assay (Cell Titer Glo); type: cell-based, human; settings: 25 cell lines
[1] = system: human renal cell carcinoma xenografts (ACHN); assay: ACHN xenograft efficacy; type: in vivo, mouse
MDA-MB-435S = assay: 6-day growth-death assay (Cell Titer Glo); type: cell-based, human
Text: (§2) Cell Titer Glo was used to measure growth inhibition as previously described.

SK-MEL-5 = assay: 6-day growth-death assay (Cell Titer Glo); type: cell-based, human
Text: as §2

SK-MEL-2 = assay: 6-day growth-death assay (Cell Titer Glo); type: cell-based, human
Text: as §2

IGR-1 = assay: 6-day growth-death assay (Cell Titer Glo); type: cell-based, human
Text: as §2

A375 = assay: 6-day growth-death assay (Cell Titer Glo); type: cell-based, human
Text: as §2

COLO741 = assay: 6-day growth-death assay (Cell Titer Glo); type: cell-based, human
Text: as §2

HT144 = assay: 6-day growth-death assay (Cell Titer Glo); type: cell-based, human
Text: as §2

[2] = system: panel of 4 ccRCC cell lines
[3] = system: Toledo (human DLBCL) xenograft; assay: Toledo xenograft efficacy
PRMT5/MEP50 = PRMT5/MEP50 (Homo sapiens, UniProt O14744); assay: PRMT family radioactive assay; type: biochemical; settings: 60 minute SAM:Enzyme:Compound A preincubation
Chain of PRMT5/MEP50 (O14744 whole entry): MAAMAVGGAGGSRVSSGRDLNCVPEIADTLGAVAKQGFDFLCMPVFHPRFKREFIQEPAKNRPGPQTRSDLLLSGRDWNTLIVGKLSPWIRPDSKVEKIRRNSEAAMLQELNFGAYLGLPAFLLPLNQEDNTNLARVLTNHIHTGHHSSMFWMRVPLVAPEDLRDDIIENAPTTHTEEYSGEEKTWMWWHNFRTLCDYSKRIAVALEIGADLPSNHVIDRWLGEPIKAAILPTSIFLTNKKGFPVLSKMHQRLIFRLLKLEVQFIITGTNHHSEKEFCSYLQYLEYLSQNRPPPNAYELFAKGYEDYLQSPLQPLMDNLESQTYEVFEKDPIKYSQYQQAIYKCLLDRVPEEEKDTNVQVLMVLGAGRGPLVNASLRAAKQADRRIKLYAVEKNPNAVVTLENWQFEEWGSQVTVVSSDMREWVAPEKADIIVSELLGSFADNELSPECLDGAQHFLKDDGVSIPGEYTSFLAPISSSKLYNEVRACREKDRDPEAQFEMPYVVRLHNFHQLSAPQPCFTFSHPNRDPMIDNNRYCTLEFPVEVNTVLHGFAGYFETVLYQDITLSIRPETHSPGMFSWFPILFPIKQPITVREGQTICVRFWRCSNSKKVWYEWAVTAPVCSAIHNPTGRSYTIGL
Chain of PRMT5/MEP50 (Q9BQA1 whole entry partner): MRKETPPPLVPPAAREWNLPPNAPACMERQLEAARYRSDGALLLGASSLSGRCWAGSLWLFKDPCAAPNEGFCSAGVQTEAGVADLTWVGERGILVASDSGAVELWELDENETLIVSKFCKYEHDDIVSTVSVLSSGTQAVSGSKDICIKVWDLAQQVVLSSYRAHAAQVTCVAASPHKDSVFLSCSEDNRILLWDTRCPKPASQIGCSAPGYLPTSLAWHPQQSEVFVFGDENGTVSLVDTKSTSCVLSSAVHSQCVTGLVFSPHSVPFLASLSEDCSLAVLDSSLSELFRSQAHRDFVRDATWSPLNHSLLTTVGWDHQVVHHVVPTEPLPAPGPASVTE

[4] = system: Prostate cancer cell lines; assay: 6-day growth-death assay (Cell Titer Glo); type: cell-based, human; settings: 4 cell lines
Melanoma cell lines = assay: 6-day growth-death assay (Cell Titer Glo); type: cell-based, human
rat 14-day MTD = settings: […] mg/kg
AML cell lines = assay: 6-day growth-death assay (Cell Titer Glo); type: cell-based, human

CCOCC1(COCC)CCC(c2n[nH]cc2CN(C)CCNC)CC1 [Compound A]
% Cytotoxic (cell lines with negative Ymin-T0) (Breast cancer cell lines): 10% | % gIC100 < 2 μM (share of cell lines) (Breast cancer cell lines): 0% | Median gIC100 (Breast cancer cell lines): 29.36 µM | Ymin-T0 (MOLM-13): −100.0 | gIC100 (MOLM-13): 8.64 ± 0.39 µM | Ymin-T0 (SHI-1): 292.0 | gIC100 (SHI-1): 29.33 ± 0.02 µM | Ymin-T0 (MOLM-16): −68.6 | gIC100 (MOLM-16): 9.69 ± 10.58 µM | Ymin-T0 (CAKI-2): 169.6 | Ymin-T0 (SK-NEP-1): 25.3 | IC50 (ACHN; Homo sapiens, read-out: gIC50): 100 ± 50 nM | Ymin-T0 (ACHN; ccRCC): 96.5 | Ymin-T0 (SW156): 346.7 | Ymin-T0 (786-O): 643.7 | Ymin-T0 (MV-4-11): 565.6 | gIC100 (MV-4-11): 14.55 ± 4.27 µM | Ymin-T0 (CAKI-1): 178.7 | Ymin-T0 (G-402): 92.6 | % Cytotoxic (cell lines with negative Ymin-T0) (NSCLC cell lines): 16% | % gIC100 < 2 μM (share of cell lines) (NSCLC cell lines): 0% | Median gIC100 (NSCLC cell lines): 29.33 µM | Regression ([1]; 300 mg/kg QD oral, day 59): (2%) | Body weight Difference (vs. vehicle) ([1]; 300 mg/kg QD, day 59): −4% | Regression ([1]; 450 mg/kg QD oral, day 59): (15%) | Body weight Difference (vs. vehicle) ([1]; 450 mg/kg QD, day 59): −7% | Regression ([1]; 600 mg/kg QD oral, arm terminated at day 31): (6%) | Body weight Difference (vs. vehicle) ([1]; 600 mg/kg QD, arm terminated at day 31): −17% | body weight loss ([1]; 600 mg/kg daily): Significant body weight loss | Body weight Difference (vs. vehicle) ([1]; […] mg/kg QD, day 59): −3% | doses at which regressions were observed ([1]; oral, daily, up to 59 days): ≥ 300 mg/kg | Ymin-T0 (MDA-MB-435S): 19.1 | gIC100 (MDA-MB-435S): 29.33 ± 0.00 µM | IC50 (SK-MEL-5; Homo sapiens, SK-MEL-5, read-out: gIC50): 90 ± 30 nM | Ymin-T0 (SK-MEL-5; SK-MEL-5): 31.8 | gIC100 (SK-MEL-5; SK-MEL-5): 27.09 ± 3.92 µM | Ymin-T0 (SK-MEL-2): 35.9 | gIC100 (SK-MEL-2): 22.37 ± 12.11 µM | Ymin-T0 (IGR-1): 507.0 | gIC100 (IGR-1): 29.33 ± 0.00 µM | Ymin-T0 (A375; A375): 91.9 | gIC100 (A375; A375): 29.33 ± 0.00 µM | IC50 (A375; Homo sapiens, A-375, read-out: gIC50): 50 ± 30 nM | Ymin-T0 (COLO741): 12.5 | gIC100 (COLO741): 28.55 ± 1.40 µM | Ymin-T0 (HT144): 124.9 | gIC100 (HT144): 29.33 ± 0.00 µM | percent growth inhibition reached ([2]; all cell lines evaluated, within 6 days): 100% | concentration at which caspase cleavage occurred ([2]; only at the highest concentration): 30 µM | Body weight Difference (vs. vehicle) ([3]; 300 mg/kg QD oral, day 28): −3% | Regression ([3]; 300 mg/kg QD oral, day 28): (37%) | Body weight Difference (vs. vehicle) ([3]; 450 mg/kg QD oral, day 28): −8% | Regression ([3]; 450 mg/kg QD oral, day 28): (58%) | Body weight Difference (vs. vehicle) ([3]; 600 mg/kg QD oral, day 28): −7% | Regression ([3]; 600 mg/kg QD oral, day 28): (62%) | Body weight Difference (vs. vehicle) ([3]; […] mg/kg QD oral, day 28): −4% | body weight loss ([3]; any dose group, 150-600 mg/kg daily, 28 days): no significant body weight loss | doses at which regressions were observed ([3]; oral, daily, 28 days): ≥ 300 mg/kg | Body weight Difference (vs. vehicle) ([3]; second study, 37.5 mg/kg QD, day 25): −5% | Body weight Difference (vs. vehicle) ([3]; second study, 75 mg/kg BID, day 25): −4% | Body weight Difference (vs. vehicle) ([3]; second study, 75 mg/kg QD, day 25): −5% | Body weight Difference (vs. vehicle) ([3]; second study, 150 mg/kg QD, day 25): −7% | inhibition of activity (PRMT5/MEP50): failed to inhibit | % Cytotoxic (cell lines with negative Ymin-T0) [4]: 0% | % gIC100 < 2 μM (share of cell lines) [4]: 0% | Median gIC100 [4]: 29.34 µM | % Cytotoxic (cell lines with negative Ymin-T0) (Melanoma cell lines; Melanoma, 7 cell lines): 0% | % gIC100 < 2 μM (share of cell lines) (Melanoma cell lines; Melanoma, 7 cell lines): 0% | Median gIC100 (Melanoma cell lines; Melanoma, 7 cell lines): 29.33 µM | nature of effect (Melanoma cell lines; all melanoma lines): cytostatic | Cave (total AUC or exposure) at MTD (rat 14-day MTD): 2100 nM | number of cell lines in which cytotoxicity was induced (AML cell lines; 10 AML cell lines): 5 | % Cytotoxic (cell lines with negative Ymin-T0) (AML cell lines; AML, 10 cell lines): 50% | % gIC100 < 2 μM (share of cell lines) (AML cell lines; AML, 10 cell lines): 0% | Median gIC100 (AML cell lines; AML, 10 cell lines): 16.72 µM | IC50 (AML cell lines; Homo sapiens, read-out: Median gIC50): 540 nM
